Data from patent US10023562B2, “Heteroaryl substituted pyridyl compounds useful as kinase modulators” (BRISTOL-MYERS SQUIBB COMPANY, priority 2012, dated 2018).
pEC50, pIC50: −log10 of the molar value.

Test system: TLR2 induced IL-6 in peripheral blood mononuclear cells (PBMCs)
Experiment: PBMC TLR2 Induced IL-6 Assay
Assay type: cell-based
Settings: Homo sapiens, PBMC, 5 h, 10 μg/ml lipoteichoic acid for 5 hours, IL-6 by ELISA, values marked * are EC50, read-out: Cell EC50 (values marked *)
Procedure: PBMC TLR2 Induced IL-6 Assay Peripheral blood mononuclear cells (PBMCs) were isolated from human blood containing the anti-coagulant EDTA (2.5 mM) by centrifugation over a FICOLL® gradient. […] At the end of the culture, plates were centrifuged at 1800 rpm for 10 minutes to pellet the cells. Supernatants were harvested and analyzed for IL-6 levels by ELISA (BD Biosciences, San Jose, Calif.).

Row | SMILES | pEC50
1 | CC(C)Nc1cc(Nc2ncc(Cl)cc2Cl)ncc1C(=O)NC[C@@H](F)C(C)(C)O [Example 84] | 6.86
2 | CC(C)Nc1cc(Nc2ncc(C#N)cc2F)ncc1C(=O)NC1CCC(O)(c2nccs2)CC1 (stereo not drawn) [Example 167] | 6.20
3 | CC(C)Nc1cc(Nc2ncncc2F)ncc1C(=O)NC[C@@H](F)C(C)(C)O [Example 53] | 6.29
4 | CC(C)Nc1cc(Nc2ncc(C#N)cc2Cl)ncc1C(=O)NC[C@H](F)C(C)(C)O [Example 156] | 6.91
5 | CC(=O)N[C@H]1CC[C@H](NC(=O)c2cnc(Nc3ncc(C#N)cc3Cl)cc2NC2CCOCC2)CC1 [Example 77] | 6.67
6 | CC(C)(O)[C@H](F)CNC(=O)c1cnc(Nc2ccc(Cl)cn2)cc1NC1CC1 [Example 81] | 7.02
7 | COC(=O)Cn1cc(Cl)c(Nc2cc(NC(C)C)c(C(=O)NC[C@@H](F)C(C)(C)O)cn2)n1 [Example 93] | 6.40
8 | CC(C)(O)[C@H](F)CNC(=O)c1cnc(Nc2ncc(C#N)c(N)n2)cc1NC1CC1 [Example 154] | 6.28
9 | CC(C)(O)[C@H](F)CNC(=O)c1cnc(Nc2ncc(C#N)cc2F)cc1NC12CCC(O)(CC1)C2 [Example 133] | 7.07
10 | COc1cnc(Nc2cc(NC3CCC3)c(C(=O)NC[C@@H](F)C(C)(C)O)cn2)nc1 [Example 112] | 7.06
11 | CC(C)Nc1cc(Nc2ncc(C#N)cc2F)ncc1C(=O)NCCCOC(C)(C)C [Example 127] | 6.60
12 | COC(C)(C)[C@H](F)CNC(=O)c1cnc(Nc2ncc(C#N)cc2F)cc1NC(C)C [Example 36] | 7.31
13 | CC(C)(O)[C@H](F)CNC(=O)c1cnc(Nc2ncc(C#N)cc2Cl)cc1NC1CCCCC1O (stereo partly drawn) [Example 104] | 6.70
14 | CC(C)Nc1cc(Nc2ncc(O)cn2)ncc1C(=O)NC[C@@H](F)C(C)(C)O [Example 111] | 6.19

Same assay, conditions: Homo sapiens, PBMC, 5 h, 10 μg/ml lipoteichoic acid for 5 hours, IL-6 by ELISA, values without asterisk, read-out: Cell IC50

Row | SMILES | pIC50
15 | CC(=O)N[C@H](C)CCNC(=O)c1cnc(Nc2ncc(C#N)cc2F)cc1NC(C)C [Example 64] | 6.35
16 | CC(C)(O)CNc1cc(Nc2ncc(C#N)cc2Cl)ncc1C(=O)NC[C@@H](F)C(C)(C)O [Example 48] | 6.43
17 | CCC(C)Nc1cc(Nc2ncc(C#N)cn2)ncc1C(=O)NC[C@@H](F)C(C)(C)O (stereo partly drawn) [Example 99] | 6.32
18 | CNC(=O)[C@H]1CC[C@H](NC(=O)c2cnc(Nc3ncc(C#N)cc3F)cc2NC2CC2)CC1 [Example 59] | 7.22
19 | CC(C)NC(=O)N[C@H](C)CCNC(=O)c1cnc(Nc2ncc(C#N)cc2F)cc1NC(C)C [Example 29, (R)-6-((5-cyano-3-fluoropyridin-2-yl)amino)-4-(isopropylamino)-N-(3-(3-isopropylureido)butyl)nicotinamide] | 6.95
20 | CC(C)(O)[C@H](F)CNC(=O)c1cnc(Nc2ncc(C#N)cn2)cc1NC1CCC(F)C1 (stereo partly drawn) [Example 56] | 7.39
21 | CC(C)(O)[C@H](F)CNC(=O)c1cnc(Nc2ncc(C#N)cc2Cl)cc1NC1CCOCC1 [Example 13, 6-((3-chloro-5-cyano-2-pyridinyl)amino)-N-((2R)-2-fluoro-3-hydroxy-3-methylbutyl)-4-(tetrahydro-2H-pyran-4-ylamino)nicotinamide] | 6.38
22 | CCNc1cc(Nc2ncc(C#N)cc2Cl)ncc1C(=O)NC[C@@H](F)C(C)(C)O [Example 51] | 7.00
23 | CC(C)Nc1cc(Nc2ccncn2)ncc1C(=O)NC[C@@H](F)C(C)(C)O [Example 20, N-((2R)-2-fluoro-3-hydroxy-3-methylbutyl)-4-(isopropylamino)-6-(4-pyrimidinylamino)nicotinamide] | 6.19

Target: IRAK4 (Homo sapiens (Human), UniProt Q9NWZ3)
Experiment: IRAK4 Inhibition Assay
Assay type: biochemical
Settings: ATP 500 μM; IRAK4 0.6 nM; 60 min at room temperature
Procedure: IRAK4 Inhibition Assay The assays were performed in U-bottom 384-well plates. […] The reaction was initiated by the combination of IRAK4 with substrates and test compounds. The reaction mixture was incubated at room temperature for 60 min. and terminated by adding 45 μL of 35 mM EDTA to each sample. The reaction mixture was analyzed on the Caliper LABCHIP® 3000 (Caliper, Hopkinton, Mass.) by electrophoretic separation of the fluorescent substrate and phosphorylated product.

IRAK4, sequence (Q9NWZ3 whole entry, species assumed): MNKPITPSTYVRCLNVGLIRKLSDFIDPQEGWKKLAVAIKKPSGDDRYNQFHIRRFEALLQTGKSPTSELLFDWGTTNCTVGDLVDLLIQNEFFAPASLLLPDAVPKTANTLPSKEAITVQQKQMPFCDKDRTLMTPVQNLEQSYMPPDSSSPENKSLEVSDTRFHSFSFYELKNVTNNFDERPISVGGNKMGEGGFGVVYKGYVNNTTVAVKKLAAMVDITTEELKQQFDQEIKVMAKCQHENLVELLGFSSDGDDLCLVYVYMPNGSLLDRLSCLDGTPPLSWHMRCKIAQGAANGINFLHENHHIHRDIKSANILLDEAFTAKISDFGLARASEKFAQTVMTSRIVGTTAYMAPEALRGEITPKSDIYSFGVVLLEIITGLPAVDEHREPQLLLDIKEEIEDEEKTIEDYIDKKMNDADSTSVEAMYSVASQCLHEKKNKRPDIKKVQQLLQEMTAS

Row | SMILES | pIC50
24 | CC(C)Nc1cc(Nc2ncc(Cl)cc2Cl)ncc1C(=O)NC[C@@H](F)C(C)(C)O [Example 84] | 8.82
